# From publication PMC12527922, “Cocaine chemogenetics blunts drug-seeking by synthetic physiology” (Nature, 2025)
# Where “and” joins values, the source holds several entries; their conditions need not be identical. Equal values may be shown once.
# Target: coca-5HT3 (α7(L141G,G175K,Y210F,Y217F)–5HT3) (Homo sapiens, UniProt P36544, G175K/L141G/Y210F/Y217F)
# Test: Membrane potential assay, coca-5HT3 in HEK293
# Conditions: for Max normalized Response / Response: coca-5HT3; for Max normalized Response: ED Fig 3b; for response at coca-5HT3: between 10-100 µM
# [1] = membrane potential assay dose response
# [2] = coca5HT3, Choline Conc 1.37174 uM
# [3] = coca5HT3, Choline Conc 12.3457 uM
# [4] = coca5HT3, Choline Conc 37.037 uM
# [5] = coca5HT3, Choline Conc 111.111 uM
# [6] = coca5HT3, Choline Conc 333.333 uM
# coca-5HT3 (α7(L141G,G175K,Y210F,Y217F)–5HT3), sequence (P36544 23-224 L141G/G175K/Y210F/Y217F): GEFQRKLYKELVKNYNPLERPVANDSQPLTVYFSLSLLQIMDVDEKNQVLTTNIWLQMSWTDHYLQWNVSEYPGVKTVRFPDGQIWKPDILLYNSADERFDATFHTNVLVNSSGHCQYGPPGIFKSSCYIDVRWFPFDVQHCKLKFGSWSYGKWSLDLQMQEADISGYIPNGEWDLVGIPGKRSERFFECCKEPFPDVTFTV
# coca-5HT3 (α7(L141G,G175K,Y210F,Y217F)–5HT3), sequence (P23979 242-489, further chain): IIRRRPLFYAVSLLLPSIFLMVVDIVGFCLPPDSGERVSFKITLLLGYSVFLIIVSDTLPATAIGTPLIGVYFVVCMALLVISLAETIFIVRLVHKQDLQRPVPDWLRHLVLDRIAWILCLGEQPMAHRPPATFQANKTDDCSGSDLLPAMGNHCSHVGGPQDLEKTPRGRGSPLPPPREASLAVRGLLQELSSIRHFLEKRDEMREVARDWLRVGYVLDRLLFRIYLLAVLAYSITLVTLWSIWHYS
smiles,measurement,setting,value
C[N+]1(C)[C@@H]2C[C@@H](OC(=O)C(O)(c3cccs3)c3cccs3)C[C@H]1[C@@H]1O[C@@H]12 [Tiotropium],Max normalized Response,conc 0.137 uM,0.05284
same,Max normalized Response,conc 3.7 uM,0.03225
same,Max normalized Response,conc 11.1 uM,0.04379
same,Max normalized Response,conc 33.3 uM,0.159
same,Max normalized Response,conc 100 uM,0.2432
N[C@H](CO)C(=O)O [D-serine],Response,"conc 0.457247 uM, ED Fig 3a",0.104
same,Response,"conc 1.37174 uM, ED Fig 3a",0.061
same,Response,"conc 12.3457 uM, ED Fig 3a",0.037
same,Response,"conc 37.037 uM, ED Fig 3a",0.062
same,Response,"conc 111.111 uM, ED Fig 3a",0.111
same,Response,"conc 333.333 uM, ED Fig 3a",0.06
same,Response,"conc 1000 uM, ED Fig 3a",0.145
CN1[C@H]2CC[C@@H]1[C@@H](C(=O)O)[C@@H](OC(=O)c1ccccc1)C2 [benzoyl ecgonine],Response,"conc 0.0137174 uM, ED Fig. 2b",0.07
same,Response,"conc 0.123457 uM, ED Fig. 2b",0.088
same,Response,"conc 0.37037 uM, ED Fig. 2b",0.072
same,Response,"conc 1.11111 uM, ED Fig. 2b",0.062
same,Response,"conc 3.33333 uM, ED Fig. 2b",0.097
same,Response,"conc 10 uM, ED Fig. 2b",0.074
same,Response,"conc 30 uM, ED Fig. 2b",0.088
same,activation of coca-5HT3,[1],not activated
CC(C)[N+]1(C)[C@@H]2CC[C@H]1C[C@@H](OC(=O)C(CO)c1ccccc1)C2 (stereo partly shown) [Ipatropium],Max normalized Response,conc 0.137 uM,0.03351
same,Max normalized Response,conc 3.7 uM,0.3358
same,Max normalized Response,conc 11.1 uM,0.05921
same,Max normalized Response,conc 33.3 uM,0.03979
same,Max normalized Response,conc 100 uM,0.03984
O=C(O[C@H]1C[C@H]2CC[C@@H](C1)[N+]21CCCC1)C(O)(c1ccccc1)c1ccccc1 [Trospium],Max normalized Response,conc 0.137 uM,0.127
same,Max normalized Response,conc 3.7 uM,0.2063
same,Max normalized Response,conc 11.1 uM,0.1005
same,Max normalized Response,conc 33.3 uM,0.1217
same,Max normalized Response,conc 100 uM,0.03704
CC(N)Cc1ccccc1 (stereo not shown) [amphetamine],Response,"conc 0.0137 uM, ED Fig. 2c",0.05
same,Response,"conc 0.123 uM, ED Fig. 2c",0.058
same,Response,"conc 0.37 uM, ED Fig. 2c",0.049
same,Response,"conc 10 uM, ED Fig. 2c",0.028
same,Response,"conc 30 uM, ED Fig. 2c",0.055
same,activation of coca-5HT3,[1],did not activate
C[N+](C)(C)CCO [choline],EC50 relative to peak physiological levels,EC50 above peak physiological levels,about 100 fold
same,"Max normalized response, AVG",[2],0.0611
same,"Max normalized response, replicates",[2],0.1043 and 0.06655 and 0.04444 and 0.02913
same,"Response, dose-response replicates (DR 1-4)",[2],0.056 and 0.037 and 0.008 and 0.006
same,"Max normalized response, AVG",[3],0.06296
same,"Max normalized response, replicates",[3],0.05773 and 0.04496 and 0.02778 and 0.1214
same,"Response, dose-response replicates (DR 1-4)",[3],0.031 and 0.025 (2×) and 0.005
same,"Max normalized response, AVG",[4],0.0516
same,"Max normalized response, replicates",[4],0.04283 and 0.03237 and 0.07778 and 0.0534
same,"Response, dose-response replicates (DR 1-4)",[4],0.023 and 0.018 and 0.014 and 0.011
same,"Max normalized response, AVG",[5],0.04734
same,"Max normalized response, replicates",[5],0.03724 and 0.04317 and 0.05556 and 0.0534
same,"Response, dose-response replicates (DR 1-4)",[5],0.02 and 0.024 and 0.01 and 0.011
same,"Max normalized response, AVG",[6],0.07674
same,"Max normalized response, replicates",[6],0.0838 and 0.08993 and 0.05556 and 0.07767
same,"Response, dose-response replicates (DR 1-4)",[6],0.045 and 0.05 and 0.01 and 0.016
same,"Max normalized response, AVG","coca5HT3, Choline Conc 1000 uM",0.4005
same,"Max normalized response, replicates","coca5HT3, Choline Conc 1000 uM",0.4022 and 0.5288 and 0.3556 and 0.3155
same,"Response, dose-response replicates (DR 1-4)","coca5HT3, Choline Conc 1000 uM",0.216 and 0.294 and 0.064 and 0.065
same,"Max normalized response, AVG","coca5HT3, Choline Conc 3000 uM",1
same,"Max normalized response, replicates","coca5HT3, Choline Conc 3000 uM",1
same,"Response, dose-response replicates (DR 1-4)","coca5HT3, Choline Conc 3000 uM",0.537 and 0.556 and 0.18 and 0.206
same,max response of each dose-response replicate,"coca5HT3, Choline, used for normalization",0.537 and 0.556 and 0.18 and 0.206
same,EC50,"half-maximum effective concentration (EC50), HEK293, fluorescence membrane potential assay",1210 µM
NCC(=O)O [Glycine],Response,"conc 0.457247 uM, ED Fig 3a",0.223
same,Response,"conc 1.37174 uM, ED Fig 3a",0.03
same,Response,"conc 12.3457 uM, ED Fig 3a",0.032
same,Response,"conc 37.037 uM, ED Fig 3a",0.042
same,Response,"conc 111.111 uM, ED Fig 3a",0.053
same,Response,"conc 333.333 uM, ED Fig 3a",0.108
same,Response,"conc 1000 uM, ED Fig 3a",0.232
Nc1ncnc2c1ncn2[C@@H]1O[C@H](CO)[C@@H](O)[C@H]1O [adenosine],Response,"conc 0.457247 uM, ED Fig 3a",0.126
same,Response,"conc 1.37174 uM, ED Fig 3a",0.045
same,Response,"conc 12.3457 uM, ED Fig 3a",0.079
same,Response,"conc 37.037 uM, ED Fig 3a",0.053
CCN(CC)CC(=O)Nc1c(C)cccc1C [Lidocaine],Max normalized Response,conc 0.137 uM,0.1106
same,Max normalized Response,conc 3.7 uM,0.1119
same,Max normalized Response,conc 11.1 uM,0.1369
same,Max normalized Response,conc 33.3 uM,0.1879
same,Max normalized Response,conc 100 uM,0.1519
same,activation of coca-5HT3,up to 100 µM,did not activate
CN1[C@@H]2CC[C@H]1C[C@@H](OC(=O)[C@H](CO)c1ccccc1)C2 [Hyoscyamine],Max normalized Response,conc 0.137 uM,0.1005
same,Max normalized Response,conc 3.7 uM,0.08466
same,Max normalized Response,conc 11.1 uM,0.09524
same,Max normalized Response,conc 33.3 uM,0.1217
same,Max normalized Response,conc 100 uM,0.01058
NCCCC(=O)O [GABA],Response,"conc 0.457247 uM, ED Fig 3a",0.157
same,Response,"conc 1.37174 uM, ED Fig 3a",0.099
same,Response,"conc 12.3457 uM, ED Fig 3a",0.041
same,Response,"conc 37.037 uM, ED Fig 3a",0.055
same,Response,"conc 111.111 uM, ED Fig 3a",0.023
same,Response,"conc 333.333 uM, ED Fig 3a",0.05
same,Response,"conc 1000 uM, ED Fig 3a",0.066
CN1CC[C@]23c4c5ccc(O)c4O[C@H]2[C@@H](O)C=C[C@H]3[C@H]1C5 [morphine],Response,"conc 0.0137 uM, ED Fig. 2c",0.063
same,Response,"conc 0.123 uM, ED Fig. 2c",0.114
same,Response,"conc 0.37 uM, ED Fig. 2c",0.04
same,Response,"conc 10 uM, ED Fig. 2c",0.069
same,Response,"conc 30 uM, ED Fig. 2c",0.121
same,activation of coca-5HT3,[1],did not activate
C[N+]1(C)[C@@H]2C[C@@H](OC(=O)[C@H](CO)c3ccccc3)C[C@H]1[C@@H]1O[C@@H]12 [Methscopolamine],Max normalized Response,conc 0.137 uM,0.01611
same,Max normalized Response,conc 3.7 uM,0.08959
same,Max normalized Response,conc 11.1 uM,0.03432
same,Max normalized Response,conc 33.3 uM,0.1141
same,Max normalized Response,conc 100 uM,0.3973
CN1[C@@H]2CC[C@H]1C[C@@H](OC(c1ccccc1)c1ccccc1)C2 [Benztropine],response at coca-5HT3,,substantial response
same,Max normalized Response,conc 0.137 uM,0.05732
same,Max normalized Response,conc 3.7 uM,0.1399
same,Max normalized Response,conc 11.1 uM,0.2931
same,Max normalized Response,conc 33.3 uM,0.5901
same,Max normalized Response,conc 100 uM,1.051
CC(=O)Oc1ccc2c3c1O[C@H]1[C@@H](OC(C)=O)C=C[C@H]4[C@@H](C2)N(C)CC[C@@]341 [heroin],Response,"conc 0.0137 uM, ED Fig. 2c",0.058
same,Response,"conc 0.123 uM, ED Fig. 2c",0.046
same,Response,"conc 0.37 uM, ED Fig. 2c",0.054
same,Response,"conc 10 uM, ED Fig. 2c",0.109
same,Response,"conc 30 uM, ED Fig. 2c",0.105
same,activation of coca-5HT3,[1],did not activate
C[N+]1(C)[C@@H]2CC[C@H]1C[C@@H](OC(=O)C(CO)c1ccccc1)C2 (stereo partly shown) [Methylatropine],response at coca-5HT3,,substantial response
same,Max normalized Response,conc 0.137 uM,0.09159
same,Max normalized Response,conc 3.7 uM,0.07315
same,Max normalized Response,conc 11.1 uM,0.365
same,Max normalized Response,conc 33.3 uM,0.7258
same,Max normalized Response,conc 100 uM,0.936
CCCC[N+]1(C)[C@@H]2C[C@@H](OC(=O)[C@H](CO)c3ccccc3)C[C@H]1[C@@H]1O[C@@H]12 (stereo partly shown) [n-Butylscopolamine],Max normalized Response,conc 0.137 uM,0.07428
same,Max normalized Response,conc 3.7 uM,0.05731
same,Max normalized Response,conc 11.1 uM,0.07366
same,Max normalized Response,conc 33.3 uM,0.04125
same,Max normalized Response,conc 100 uM,0.03532
NC[C@H](O)c1ccc(O)c(O)c1 [Norepinephrine],Response,"conc 0.457247 uM, ED Fig 3a",0.151
same,Response,"conc 1.37174 uM, ED Fig 3a",0.081
same,Response,"conc 12.3457 uM, ED Fig 3a",0.077
same,Response,"conc 37.037 uM, ED Fig 3a",0.059
same,Response,"conc 111.111 uM, ED Fig 3a",0.059
same,Response,"conc 333.333 uM, ED Fig 3a",0.043
COc1ccc2c3c1O[C@H]1C(=O)CC[C@@]4(O)[C@@H](C2)N(C)CC[C@]314 [oxycodone],Response,"conc 0.0137 uM, ED Fig. 2c",0.109
same,Response,"conc 0.123 uM, ED Fig. 2c",0.086
same,Response,"conc 0.37 uM, ED Fig. 2c",0.066
same,Response,"conc 10 uM, ED Fig. 2c",0.081
same,Response,"conc 30 uM, ED Fig. 2c",0.117
same,activation of coca-5HT3,[1],did not activate
NCCc1ccc(O)c(O)c1 [Dopamine],Response,"conc 0.457247 uM, ED Fig 3a",0.119
same,Response,"conc 1.37174 uM, ED Fig 3a",0.062
same,Response,"conc 12.3457 uM, ED Fig 3a",0.04
same,Response,"conc 37.037 uM, ED Fig 3a",0.017
same,Response,"conc 111.111 uM, ED Fig 3a",0.052
same,Response,"conc 333.333 uM, ED Fig 3a",0.039
same,Response,"conc 1000 uM, ED Fig 3a",0.106
